Results: patent US12583858B2 (Genentech, Inc., priority 2015, dated 2026)

target: T1, TDO2 (Homo sapiens, UniProt P48775); experiment: TDO2 cell assay (NFK GreenScreen, SW48 cells); format: cell-based; conditions: SW48 cells (high TDO expressing), 200 uM tryptophan, 24 hours; Table 3; read-out: TDO2 Cell Fluor EC50
T1 construct: decreased levels of NFK in SW48 cells (high TDO expressing cells)
T1 sequence (P48775 whole entry): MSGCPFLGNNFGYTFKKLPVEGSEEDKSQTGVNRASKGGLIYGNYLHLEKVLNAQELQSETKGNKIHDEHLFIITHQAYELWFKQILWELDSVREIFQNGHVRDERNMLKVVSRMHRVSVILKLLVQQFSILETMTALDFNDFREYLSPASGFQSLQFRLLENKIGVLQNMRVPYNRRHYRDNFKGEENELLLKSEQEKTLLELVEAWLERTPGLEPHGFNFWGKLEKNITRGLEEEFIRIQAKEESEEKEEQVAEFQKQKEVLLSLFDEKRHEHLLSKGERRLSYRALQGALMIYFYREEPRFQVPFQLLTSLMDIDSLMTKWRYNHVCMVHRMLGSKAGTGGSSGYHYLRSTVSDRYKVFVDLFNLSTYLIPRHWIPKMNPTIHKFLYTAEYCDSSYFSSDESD

Row | EC50 [µM] | SMILES
1 | 0.93 | O[C@@H]1[C@@H]([C@H]2c3ccccc3-c3cncn32)CCCC1(F)F (single isomer, unassigned) [Example 106d]
2 | 1 | Nc1cc2n(n1)CCC(C1c3ccccc3-c3cncn31)C2O (single isomer, unassigned) [Example 161c]
3 | 0.046 | OC1CC2(CCC2)C1C1c2ccccc2-c2cncn21 (single isomer, unassigned) [Example 67f]
4 | > 25 | OC1CCOCC1C1c2c(F)cccc2-c2cncn21 (single isomer, unassigned) [Example 73d]
5 | 0.33 | NC(=O)c1ccc2c(n1)CCC(C1c3ccccc3-c3cncn31)C2O (single isomer, unassigned) [Example 104g]
6 | 5.2 | CS(=O)(=O)N1CCC(C2c3ccccc3-c3cncn32)C(O)C1 (single isomer, unassigned) [Example 79b]
7 | 3.8 | CS(=O)(=O)c1ccc2c(c1)CCC(C1c3ccccc3-c3cncn31)C2O (single isomer, unassigned) [Example 36d]
8 | 15 | OC1c2cccn2CCC1C1c2ccccc2-c2cncn21 (single isomer, unassigned) [Example 136d]
9 | 11.8 | C[C@@H](O)[C@H]1c2ccccc2-c2cncn21 [Example 42b, (R)-1-((R)-5H-imidazo[5,1-a]isoindol-5-yl)ethan-1-ol]
10 | > 25 | OC1c2ccnn2CCCC1C1c2ccccc2-c2cncn21 (single isomer, unassigned) [Example 133h]
11 | 18 | OCC(O)C1c2ccccc2-c2cncn21 (single isomer, unassigned) [Example 49a, 1-(5H-imidazo[5,1-a]isoindol-5-yl)ethane-1,2-diol]
12 | 5.2 | O[C@H]1c2ccncc2CC[C@H]1[C@@H]1c2ccccc2-c2cncn21 (single isomer, unassigned) [Example 08c]
13 | > 25 | OCC(O)C1c2ccccc2-c2cncn21 (single isomer, unassigned) [Example 49c, 1-(5H-imidazo[5,1-a]isoindol-5-yl)ethane-1,2-diol]
14 | 0.077 | NS(=O)(=O)c1ccc2c(c1)C(O)C(C1c3ccccc3-c3cncn31)CC2 (single isomer, unassigned) [Example 105c]
15 | 3.8 | OC1c2cnncc2CCC1C1c2ccccc2-c2cncn21 (single isomer, unassigned) [Example 112f]
16 | 0.13 | O[C@@H]1c2c(F)cnn2CC[C@H]1[C@H]1c2ccccc2-c2cncn21 (single isomer, unassigned) [Example 151d]
17 | > 25 | C[C@@H](O)[C@@H]1c2ccccc2-c2cncn21 [Example 42a, (R)-1-((S)-5H-imidazo[5,1-a]isoindol-5-yl)ethan-1-ol]
18 | > 25 | OC1c2cnccc2CC1C1c2ccccc2-c2cncn21 (single isomer, unassigned) [Example 71aa]
19 | 0.51 | OC1c2ccccc2CC1C1c2ccccc2-c2cncn21 (single isomer, unassigned) [Example 19b]
20 | 0.24 | CS(=O)(=O)N1CCC(O)C(C2c3ccccc3-c3cncn32)CC1 (single isomer, unassigned) [Example 92d]
21 | > 25 | CS(=O)(=O)N1CCC(O)C(C2c3ccc(F)cc3-c3cncn32)C1 (single isomer, unassigned) [Example 118a]

Row | EC50 [µM] | SMILES
22 | > 25 | CC(=O)N1CC[C@H](O)[C@@H]([C@H]2c3ccccc3-c3cncn32)C1 (single isomer, unassigned) [Example 12c]
23 | 2.5 | CS(=O)(=O)N1CC[C@@H]([C@H]2c3ccccc3-c3cncn32)[C@H](O)C1 (single isomer, unassigned) [Example 64d]
24 | 16 | O[C@@H](C1CCCCC1)[C@H]1c2ccccc2-c2cncn21 [Example 148b, (S)-cyclohexyl((R)-5H-imidazo[5,1-a]isoindol-5-yl)methanol]
25 | 0.27 | Cc1cc2n(n1)CCC(C1c3ccccc3-c3cncn31)C2O (single isomer, unassigned) [Example 166b]
26 | 0.98 | CS(=O)(=O)c1ccc2c(c1)CCC(C1c3ccccc3-c3cncn31)C2O (single isomer, unassigned) [Example 36h]
27 | 17 | OC1CC2(COC2)C1C1c2ccccc2-c2cncn21 (single isomer, unassigned) [Example 87f]
28 | 0.3 | O[C@@H]1CCC[C@@H]1[C@H]1c2ccccc2-c2cncn21 [Example 02c, (1R,2R)-2-((S)-5H-imidazo[5,1-a]isoindol-5-yl)cyclopentan-1-ol]
29 | > 25 | OC1c2cnncc2CCC1C1c2ccccc2-c2cncn21 (single isomer, unassigned) [Example 112c]
30 | > 25 | CC(C)C(O)C1c2ccccc2-c2cncn21 (single isomer, unassigned) [Example 51b]
31 | 0.077 | O[C@H]1CCCC[C@H]1[C@H]1c2ccccc2-c2cncn21 [Example 03a, (1S,2S)-2-((S)-5H-imidazo[5,1-a]isoindol-5-yl)cyclohexan-1-ol]
32 | 14 | Cc1cnn2c1C(O)C(C1c3ccccc3-c3cncn31)CC2 (single isomer, unassigned) [Example 159b]
33 | 15 | OC1c2cncn2CCC1C1c2ccccc2-c2cncn21 (single isomer, unassigned) [Example 07a]
34 | 0.048 | O[C@@H]1c2ccncc2CC[C@H]1[C@H]1c2ccccc2-c2cncn21 [Example 08a, (5S,6S)-6-((S)-5H-imidazo[5,1-a]isoindol-5-yl)-5,6,7,8-tetrahydroisoquinolin-5-ol]
35 | 0.13 | O[C@@H]1c2cnccc2CC[C@H]1[C@H]1c2ccccc2-c2cncn21 (single isomer, unassigned) [Example 04h]
36 | > 25 | CC1(C)COC[C@@H]([C@H]2c3ccccc3-c3cncn32)[C@H]1O [Example 66a, (4R,5R)-5-((S)-5H-imidazo[5,1-a]isoindol-5-yl)-3,3-dimethyltetrahydro-2H-pyran-4-ol]
37 | 0.077 | OC1C(C2c3ccccc3-c3cncn32)CC12CCOCC2 (single isomer, unassigned) [Example 57e]
38 | 18 | OC1CC2(CC2)C1C1c2ccccc2-c2cncn21 (single isomer, unassigned) [Example 72h]
39 | > 25 | OC1CCCOCC1C1c2ccccc2-c2cncn21 (single isomer, unassigned) [Example 86c]
40 | 11 | OC1c2ccccc2CCC1C1c2ccccc2-c2cncn21 (single isomer, unassigned) [Example 102d]
41 | 0.44 | OC1c2nonc2CCC1C1c2ccccc2-c2cncn21 (single isomer, unassigned) [Example 163g]
42 | 0.23 | OC1COCC1C1c2ccccc2-c2cncn21 (single isomer, unassigned) [Example 26b]

Row | EC50 [µM] | SMILES
43 | 1.6 | OC1c2cnccc2CC1C1c2ccccc2-c2cncn21 (single isomer, unassigned) [Example 71d]
44 | > 25 | OC1COCCC1C1c2c(Cl)cccc2-c2cncn21 (single isomer, unassigned) [Example 69-1c]
45 | > 25 | OC1c2nncn2CCC1C1c2ccccc2-c2cncn21 (single isomer, unassigned) [Example 146-1a]
46 | 9.5 | CN(C)C(=O)c1ccc2c(c1)CCC(C1c3ccccc3-c3cncn31)C2O (single isomer, unassigned) [Example 98d]
47 | 3.8 | OC1c2ccnn2CCC1C1c2ccccc2-c2cncn21 (single isomer, unassigned) [Example 56f]
48 | > 25 | O[C@H]1CC[C@@H]1[C@@H]1c2ccccc2-c2cncn21 [Example 01c, (1S,2R)-2-((R)-5H-imidazo[5,1-a]isoindol-5-yl)cyclobutan-1-ol]
49 | > 25 | O[C@@H](C1CCCCC1)[C@@H]1c2ccccc2-c2cncn21 (single isomer, unassigned) [Example 148d]
50 | 1.1 | OC1CC2(CCC2)C1C1c2ccccc2-c2cncn21 (single isomer, unassigned) [Example 67c]
51 | 1.1 | NC(=O)c1cc2n(n1)CCC(C1c3ccccc3-c3cncn31)C2O (single isomer, unassigned) [Example 172b]
52 | > 25 | OC1c2cncn2CC[C@@H]1[C@@H]1c2ccccc2-c2cncn21 (stereo in doubt) [Example 07d, (7R,8S)-7-((R)-5H-imidazo[5,1-a]isoindol-5-yl)-5,6,7,8-tetrahydroimidazo[1,5-a]pyridin-8-ol]
53 | > 25 | OC1COCCC1C1c2ccc(F)cc2-c2cncn21 (single isomer, unassigned) [Example 33a]
54 | 3.7 | Cc1cnn2c1C(O)C(C1c3ccccc3-c3cncn31)CC2 (single isomer, unassigned) [Example 159d]
55 | 0.048 | OC1CCCCC1C1c2ccc(F)cc2-c2cncn21 (single isomer, unassigned) [Example 25d]
56 | > 25 | N#CCN1CC[C@H]([C@H]2c3ccccc3-c3cncn32)[C@@H](O)C1 [Example 27c, 2-((3R,4R)-3-hydroxy-4-((S)-5H-imidazo[5,1-a]isoindol-5-yl)piperidin-1-yl)acetonitrile]
57 | > 25 | OC1COCCC1C1c2cc(F)ccc2-c2cncn21 (single isomer, unassigned) [Example 75-1b]
58 | > 25 | CCS(=O)(=O)N1CCC(O)C(C2c3ccccc3-c3cncn32)C1 (single isomer, unassigned) [Example 15b]
59 | 14 | O[C@H]1CCC[C@H]1[C@@H]1c2ccccc2-c2cncn21 [Example 02d, (1S,2S)-2-((R)-5H-imidazo[5,1-a]isoindol-5-yl)cyclopentan-1-ol]
60 | 12 | O[C@@H]1c2ccncc2CC[C@H]1[C@@H]1c2ccccc2-c2cncn21 (single isomer, unassigned) [Example 08f]
61 | 15 | O[C@H]1CCC(F)(F)C[C@H]1[C@@H]1c2ccccc2-c2cncn21 (single isomer, unassigned) [Example 18f]
62 | > 25 | O[C@H]1c2ncsc2CC[C@@H]1[C@@H]1c2ccccc2-c2cncn21 [Example 125a, (4R,5R)-5-((R)-5H-imidazo[5,1-a]isoindol-5-yl)-4,5,6,7-tetrahydrobenzo[d]thiazol-4-ol]
